In patent US9556179B2 (BRISTOL-MYERS SQUIBB COMPANY, priority 2012, dated 2017) one finds IC50 data, which are given here for 27 compounds.

SMILES strings stand for the structures.

One assay deals with CK1ε (Homo sapiens (Human), UniProt P49674). Nature of the assay: CK1ε kinase assay (Caliper LABCHIP electrophoretic separation of fluoresceinated peptide substrate and product). In kind it is biochemical. The note with it: 200 pM enzyme, 50 μM ATP, 22 hours at room temperature. In outline: (§1)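 Compounds, taken from 10 mM DMSO stocks, are titrated at eleven concentrations. Kinase reactions proceed for 22 hours at room temperature and are quenched with EDTA. Substrate and product are resolved electrophoretically, and IC50 values are fitted by non-linear regression.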
CK1ε, sequence (P49674 whole entry): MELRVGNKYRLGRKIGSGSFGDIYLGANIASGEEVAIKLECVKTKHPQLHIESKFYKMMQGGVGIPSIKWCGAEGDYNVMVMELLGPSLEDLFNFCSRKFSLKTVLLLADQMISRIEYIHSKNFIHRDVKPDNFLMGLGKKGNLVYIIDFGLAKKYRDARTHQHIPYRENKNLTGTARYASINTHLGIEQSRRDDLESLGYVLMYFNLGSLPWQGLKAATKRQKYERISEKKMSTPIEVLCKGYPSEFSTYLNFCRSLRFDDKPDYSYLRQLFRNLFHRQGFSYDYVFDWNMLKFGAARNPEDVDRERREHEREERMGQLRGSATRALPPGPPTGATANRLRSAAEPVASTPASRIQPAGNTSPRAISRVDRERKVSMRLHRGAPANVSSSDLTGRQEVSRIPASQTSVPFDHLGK

Another assay deals with CK1δ (Homo sapiens (Human), UniProt P48730). As to the kind of experiment: CK1δ kinase assay (Caliper LABCHIP electrophoretic separation of fluoresceinated peptide substrate and product). In kind it is biochemical. The settings on record: 200 pM enzyme, 50 μM ATP, 22 hours at room temperature. The procedure, abridged: as §1
CK1δ, sequence (P48730 whole entry): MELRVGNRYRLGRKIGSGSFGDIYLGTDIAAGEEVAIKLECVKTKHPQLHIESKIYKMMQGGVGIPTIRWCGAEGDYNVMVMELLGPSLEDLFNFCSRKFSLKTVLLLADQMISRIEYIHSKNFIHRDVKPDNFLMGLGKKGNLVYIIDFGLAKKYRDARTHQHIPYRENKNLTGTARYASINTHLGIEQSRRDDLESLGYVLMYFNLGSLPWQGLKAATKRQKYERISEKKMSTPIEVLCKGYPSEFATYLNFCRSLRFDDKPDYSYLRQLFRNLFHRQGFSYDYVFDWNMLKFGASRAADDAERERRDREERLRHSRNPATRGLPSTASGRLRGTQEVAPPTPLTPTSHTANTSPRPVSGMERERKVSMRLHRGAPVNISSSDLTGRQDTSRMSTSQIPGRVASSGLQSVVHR

With `Cc1nc(-c2ccc(Cl)cc2)c(-c2ccc3nc(NC(=O)c4ccnc(F)c4)cn3n2)n1CCF` [Compound 293, N-(6-(4-(4-chlorophenyl)-1-(2-fluoroethyl)-2-methyl-1H-imidazol-5-yl)imidazo[1,2-b]pyridazin-2-yl)-2-fluoroisonicotinamide], the IC50 worked out at 1.28 nM at CK1ε and 0.109 nM against CK1δ.

As for `Cc1nc(-c2ccc(Cl)cc2)c(-c2ccc3nc(NC(=O)c4ccnc(F)c4)cn3n2)n1CC(F)F` [Compound 294, N-(6-(4-(4-chlorophenyl)-1-(2,2-difluoroethyl)-2-methyl-1H-imidazol-5-yl)imidazo[1,2-b]pyridazin-2-yl)-2-fluoroiso-nicotinamide], the values for the IC50 on CK1ε and against CK1δ were 4.03 nM and 0.208 nM, respectively.

`Cc1nc(-c2ccc(Cl)cc2)c(-c2ccc3nc(NC(=O)c4ccnc(F)c4)cn3n2)n1CC(F)(F)F` [Compound 295, N-(6-(4-(4-chlorophenyl)-2-methyl-1-(2,2,2-trifluoroethyl)-1H-imidazol-5-yl)imidazo[1,2-b]pyridazin-2-yl)-2-fluoroisonicotin-amide]: the IC50 on CK1ε turned out to be 5.95 nM; against CK1δ it was 0.126 nM.

Consider `Cc1nc(-c2ccc(Cl)cc2)c(-c2ccc3nc(NC(=O)c4ccnc(F)c4)cn3n2)n1C` [Compound 296, N-(6-(4-(4-chlorophenyl)-1,2-dimethyl-1H-imidazol-5-yl)imidazo[1,2-b]pyridazin-2-yl)-2-fluoroisonicotinamide], for which the IC50 against CK1ε worked out at 10.2 nM; on CK1δ, 0.519 nM.

For `Cc1cc(-c2nc(C)n(CC(F)F)c2-c2ccc3nc(NC(=O)c4ccnc(F)c4)cn3n2)ccc1F` [Compound 297], the IC50 amounted to 2.26 nM on CK1ε and 0.354 nM at CK1δ.

With `Cc1cc(-c2nc(C)n(C)c2-c2ccc3nc(NC(=O)c4ccnc(F)c4)cn3n2)ccc1F` [Compound 298, 2-fluoro-N-(6-(4-(4-fluoro-3-methylphenyl)-1,2-dimethyl-1H-imidazol-5-yl)imidazo[1,2-b]pyridazin-2-yl)isonicotinamide], the IC50 on CK1ε came out at 5.29 nM; against CK1δ, 0.714 nM.

With `Cc1cc(-c2nc(C)n(CCF)c2-c2ccc3nc(NC(=O)c4ccnc(F)c4)cn3n2)ccc1F` [Compound 299, 2-fluoro-N-(6-(4-(4-fluoro-3-methylphenyl)-1-(2-fluoroethyl)-2-methyl-1H-imidazol-5-yl)imidazo[1,2-b]pyridazin-2-yl) isonicotinamide], the IC50 against CK1ε was 0.76 nM; at CK1δ, 0.186 nM.

Turning to `Cc1ccc(-c2nc(C)n(C)c2-c2ccc3nc(NC(=O)c4ccnc(F)c4)cn3n2)cc1` [Compound 300, N-(6-(1,2-dimethyl-4-(p-tolyl)-1H-imidazol-5-yl)imidazo[1,2-b]pyridazin-2-yl)-2-fluoroiso-nicotinamide], the IC50 on CK1ε is 34.3 nM; on CK1δ, 1.8 nM.

On to `Cc1nc(-c2ccc(F)cc2)c(-c2ccc3nc(NC(=O)c4cncs4)cn3n2)n1C` [Compound 303, N-(6-(4-(4-fluorophenyl)-1,2-dimethyl-1H-imidazol-5-yl)imidazo[1,2-b]pyridazin-2-yl)thiazole-5-carboxamide], for which the IC50 on CK1ε is 4.4 nM; on CK1δ it was 3.9 nM.

For the compound `Cc1nc(-c2ccc(F)cc2)c(-c2ccc3nc(NC(=O)c4coc(-c5ccncc5)n4)cn3n2)n1C` [Compound 304, N-(6-(4-(4-fluorophenyl)-1,2-dimethyl-1H-imidazol-5-yl)imidazo[1,2-b]pyridazin-2-yl)-2-(pyridin-4-yl)oxazole-4-carboxamide], the IC50 on CK1ε came to 48.5 nM; against CK1δ, 3.44 nM.

Turning to `Cc1nc(-c2ccncc2)sc1C(=O)Nc1cn2nc(-c3c(-c4ccc(F)cc4)nc(C)n3C)ccc2n1` [Compound 308, N-(6-(4-(4-fluorophenyl)-1,2-dimethyl-1H-imidazol-5-yl)imidazo[1,2-b]pyridazin-2-yl)-4-methyl-2-(pyridin-4-yl) thiazole-5-carboxamide], the IC50 came to 5.26 nM against CK1ε and 0.322 nM at CK1δ.

On to `Cc1nc(-c2ccc(F)cc2)c(-c2ccc3nc(NC(=O)c4cnc5ccccc5n4)cn3n2)n1C` [Compound 310, N-(6-(4-(4-fluorophenyl)-1,2-dimethyl-1H-imidazol-5-yl)imidazo[1,2-b]pyridazin-2-yl) quinoxaline-2-carboxamide], for which the IC50 stood at 8.37 nM against CK1ε and 1.03 nM on CK1δ.

Take `Cc1nc(-c2ccc(F)cc2)c(-c2ccc3nc(NC(=O)c4cc5ccccc5cn4)cn3n2)n1C` [Compound 311, N-(6-(4-(4-fluorophenyl)-1,2-dimethyl-1H-imidazol-5-yl)imidazo[1,2-b]pyridazin-2-yl) isoquinoline-3-carboxamide]: the values for the IC50 on CK1ε and against CK1δ were 46.9 nM and 33.9 nM, respectively.

For the compound `Cc1nc(-c2ccc(F)cc2)c(-c2ccc3nc(NC(=O)c4ccc5ncccc5n4)cn3n2)n1C` [Compound 312, N-(6-(4-(4-fluorophenyl)-1,2-dimethyl-1H-imidazol-5-yl)imidazo[1,2-b]pyridazin-2-yl)-1,5-naphthyridine-2-carboxamide], the IC50 on CK1ε came to 19.6 nM; against CK1δ, 8.38 nM.

For `Cc1nc(-c2ccc(F)cc2)c(-c2ccc3nc(NC(=O)c4ccc5ccncc5c4)cn3n2)n1C` [Compound 313, N-(6-(4-(4-fluorophenyl)-1,2-dimethyl-1H-imidazol-5-yl)imidazo[1,2-b]pyridazin-2-yl)isoquinoline-7-carbox-amide], the IC50 turned out to be 1.89 nM against CK1ε and 0.691 nM against CK1δ.

Regarding `Cc1nc(-c2ccc(F)cc2)c(-c2ccc3nc(NC(=O)c4ccc(-n5cccn5)nc4)cn3n2)n1C` [Compound 314, N-(6-(4-(4-fluorophenyl)-1,2-dimethyl-1H-imidazol-5-yl)imidazo[1,2-b]pyridazin-2-yl)-6-(1H-pyrazol-1-yl) nicotinamide], the IC50 came to 3.1 nM on CK1ε and 0.479 nM against CK1δ.

`Cc1nc(-c2ccc(F)cc2)c(-c2ccc3nc(NC(=O)[C@@H]4CCCN4)cn3n2)n1C` [Compound 315, (S)-N-(6-(4-(4-fluorophenyl)-1,2-dimethyl-1H-imidazol-5-yl)imidazo[1,2-b]pyridazin-2-yl)pyrrolidine-2-carbox-amide]: the IC50 against CK1ε was 375 nM; against CK1δ, 19.8 nM.

As to `Cc1nc(-c2ccc(F)cc2)c(-c2ccc3nc(NC(=O)[C@@H]4CC(F)(F)CN4)cn3n2)n1C` [Compound 316, (S)-4,4-difluoro-N-(6-(4-(4-fluorophenyl)-1,2-dimethyl-1H-imidazol-5-yl)imidazo[1,2-b]pyridazin-2-yl)pyrrolidine-2-carboxamide], the IC50 on CK1ε was 39.4 nM; against CK1δ it was 3.09 nM.

On to `Cc1nc(-c2ccc(F)cc2)c(-c2ccc3nc(NC(=O)c4cc5ccccc5[nH]4)cn3n2)n1C` [Compound 319, N-(6-(4-(4-fluorophenyl)-1,2-dimethyl-1H-imidazol-5-yl)imidazo[1,2-b]pyridazin-2-yl)-1H-indole-2-carboxamide], for which the IC50 against CK1ε came to 12.1 nM; against CK1δ it was 1.73 nM.

Take `Cc1nc(-c2ccc(F)cc2)c(-c2ccc3nc(NC(=O)c4ccnc(F)c4)cn3n2)n1C` [Compound 320, 2-fluoro-N-(6-(4-(4-fluoro-phenyl)-1,2-dimethyl-1H-imidazol-5-yl)imidazo[1,2-b]pyridazin-2-yl)isonicotin-amide]: the values for the IC50 at CK1ε and against CK1δ were 1.86 nM and 0.274 nM, respectively.

Take `Cc1nc(-c2ccc(F)cc2)c(-c2ccc3nc(NC(=O)c4ccc(F)nc4)cn3n2)n1C` [Compound 321, 6-fluoro-N-(6-(4-(4-fluoro-phenyl)-1,2-dimethyl-1H-imidazol-5-yl)imidazo[1,2-b]pyridazin-2-yl)nicotinamide]: the IC50 against CK1ε amounted to 1.97 nM; against CK1δ, 0.152 nM.

Take `Cc1nc(-c2ccc(F)cc2)c(-c2ccc3nc(NC(=O)c4ccc(O)nc4)cn3n2)n1C` [Compound 322, N-(6-(4-(4-fluorophenyl)-1,2-dimethyl-1H-imidazol-5-yl)imidazo[1,2-b]pyridazin-2-yl)-6-hydroxynicotinamide]: the IC50 on CK1ε is 4.76 nM; at CK1δ it was 0.473 nM.

Turning to `Cc1nc(-c2ccc(F)cc2)c(-c2ccc3nc(NC(=O)c4ccnc(N5CCOCC5)c4)cn3n2)n1C` [Compound 324, N-(6-(4-(4-fluorophenyl)-1,2-dimethyl-1H-imidazol-5-yl)imidazo[1,2-b]pyridazin-2-yl)-2-morpholinoisonicotin-amide], the values for the IC50 on CK1ε and against CK1δ were 1.91 nM and 0.344 nM, respectively.

`Cc1nc(-c2ccc(F)cc2)c(-c2ccc3nc(NC(=O)c4cccc(-c5cccnc5)c4)cn3n2)n1C` [Compound 325, N-(6-(4-(4-fluorophenyl)-1,2-dimethyl-1H-imidazol-5-yl)imidazo[1,2-b]pyridazin-2-yl)-3-(pyridin-3-yl) benzamide]: the IC50 against CK1ε turned out to be 1.44 nM; on CK1δ it was 0.323 nM.

For `Cc1cc[nH]c1C(=O)Nc1cn2nc(-c3c(-c4ccc(F)cc4)nc(C)n3C)ccc2n1` [Compound 326, N-(6-(4-(4-fluorophenyl)-1,2-dimethyl-1H-imidazol-5-yl)imidazo[1,2-b]pyridazin-2-yl)-3-methyl-1H-pyrrole-2-carboxamide], the IC50 on CK1ε came out at 12.3 nM; against CK1δ, 2.68 nM.

`Cc1nc(-c2ccc(F)cc2)c(-c2ccc3nc(NC(=O)c4cc5cnccc5[nH]4)cn3n2)n1C` [Compound 327, N-(6-(4-(4-fluorophenyl)-1,2-dimethyl-1H-imidazol-5-yl)imidazo[1,2-b]pyridazin-2-yl)-1H-pyrrolo[3,2-c] pyridine-2-carboxamide]: the IC50 against CK1ε was determined as 6.08 nM; against CK1δ, 0.676 nM.

Take `Cc1nc(-c2ccc(F)cc2)c(-c2ccc3nc(NC(=O)c4cccc5ncccc45)cn3n2)n1C` [Compound 328, N-(6-(4-(4-fluorophenyl)-1,2-dimethyl-1H-imidazol-5-yl)imidazo[1,2-b]pyridazin-2-yl)-5-quinolinecarboxamide]: the figures for the IC50 on CK1ε and against CK1δ were 2.13 nM and 0.335 nM, respectively.
